Tests used:
Erysiphe graminis = assay: Test for Preventive Effect on Wheat Powdery Mildew; type: in vivo; design: key: A: No diseased area; B: Diseased area of less than 25%; C: Diseased area of at least 25% but less than 50%; Diseased area of at least 50%; details: wheat seedlings (Norin-61-go), 500 ppm active ingredient, 10 ml per pot, 10 days after inoculation
Experimental: [table] Test for Preventive Effect on Wheat Powdery Mildew 9 wheat seeds (variety: […] Then, the seedlings were inoculated with […] graminis spores in suspension and placed in a greenhouse at 25 to 30° C. 10 days after the inoculation, the total diseases area of the first leaves in each pot was observed and evaluated on the basis of the standards shown in Table 59. The results are shown in Tables 67 to 71.

Venturia inaequalis = assay: Test for Preventive Effect on Apple Scab; type: in vivo; design: key: A: No diseased area; B: Diseased area of less than 25%; C: Diseased area of at least 25% but less than 50%; Diseased area of at least 50%; details: 14 days after inoculation; for Evaluation (diseased area of the upper two inoculated leaves): apple seedlings (Kogyoku), 500 ppm active ingredient, 20 ml per pot; for Evaluation (diseased areas of the upper two of the inoculated leaves): apple seedlings, wettable powder at 500 ppm active ingredient, preventive
Experimental: [table] Test for Preventive Effect on Apple Scab 5 apple seeds (variety: Kogyoku) were sown in each 9 cm×9 cm polyvinyl chloride pot and grown in a greenhouse for 20 days. […] Then, the seedlings were inoculated with Venturia inaequalis spores in suspension by spraying and immediately placed in a moist chamber at 22° C. for 48 hours. Thereafter, the seedlings were placed in a greenhouse for development of the disease. 14 days after the inoculation, the diseased areas of the upper two of the inoculated leaves were observed and evaluated on the basis of the standards shown in Table 59.

Botrytis cinerea = assay: Test for Preventive Effect on Cucumber Gray Mold; type: in vivo; design: key: A: No diseased area; B: Diseased area of less than 25%; C: Diseased area of at least 25% but less than 50%; Diseased area of at least 50%; details: cotyledonary cucumber seedlings (Sagami-hanziro), 500 ppm active ingredient, 10 ml per pot, 3 days after inoculation
Experimental: [table] Test for Preventive Effect on Cucumber Gray Mold 9 cucumber seeds (variety: Sagami-hanziro) were sown in each 9 cm−9 cm polyvinyl chloride pot and grown in a greenhouse for 7 days. […] Then, the seedlings were inoculated with milled Botrytis cinerea hyphae in solution by spraying and immediately placed in a moist chamber at 22° C. 3 days after the inoculation, the total diseased area in each pot was observed and evaluated on the basis of the standards shown in Table 59.

[1] = test system: Pseudoperonospora cubensis; assay: Test for Preventive Effect on Cucumber Downy Mildew; type: in vivo; design: key: A: No diseased area; B: Diseased area of less than 25%; C: Diseased area of at least 25% but less than 50%; Diseased area of at least 50%; details: cucumber seedlings, wettable powder at 500 ppm active ingredient, 7 days after inoculation
Experimental: Test for Preventive Effect on Cucumber Downy Mildew 9 cucumber seeds (variety: Sagami-hanpaku) were sown in each 9 cmx9 cm polyvinyl chloride pot and grown in a greenhouse for 7 days. […] Then, the seedlings were inoculated with Pseudoperonospora cubensis zoosporangia in suspension by spraying and immediately placed in a moist chamber at 22° C. for 24 hours. Thereafter, the seedlings were placed in a greenhouse. 7 days after the inoculation, the total diseased area in each pot was observed and evaluated on the basis of the standards shown in Table 59. [table]

In the case of `COC(=O)NC(C)c1cc(-c2ccc(F)cc2)ccc1F` (racemic) [3-28], the “Evaluation (total diseased area of the first leaves in each pot)” value (Erysiphe graminis) is reported as “B (Diseased area of less than 25%)”, the “Evaluation (diseased area of the upper two inoculated leaves)” value (Venturia inaequalis) is reported as “A” and the “Evaluation (total diseased area in each pot)” value (Botrytis cinerea) is reported as “B (Diseased area of less than 25%)”.
For `COC(=O)NC(C)c1cc(-c2ccc(Cl)cc2)ccc1F` (racemic) [3-30], the “Evaluation (total diseased area of the first leaves in each pot)” value (Erysiphe graminis) was “B (Diseased area of less than 25%)”, the “Evaluation (diseased area of the upper two inoculated leaves)” value (Venturia inaequalis) was “B (Diseased area of less than 25%)” and the “Evaluation (total diseased area in each pot)” value (Botrytis cinerea) was “B (Diseased area of less than 25%)”.
In the case of `COC(=O)NCc1cccc(-c2ccccc2)c1` [1-1, Methyl N-(3-phenylbenzyl)carbamate], the “Evaluation (total diseased area of the first leaves in each pot)” value (Erysiphe graminis) is reported as “A”, the “Evaluation (diseased areas of the upper two of the inoculated leaves)” value (Venturia inaequalis) is reported as “A” and the melting point is reported as 49 to 52 °C.
With `COC(=O)NCc1cccc(-c2ccc(Cl)cc2)c1` [1-4] the “Evaluation (total diseased area of the first leaves in each pot)” value (Erysiphe graminis) was “B (Diseased area of less than 25%)”, the “Evaluation (diseased areas of the upper two of the inoculated leaves)” value (Venturia inaequalis) was “A” and the “Evaluation (total diseased area in each pot)” value (Botrytis cinerea) was “A”.
For `COC(=O)NCc1cccc(-c2cccc(C)c2)c1` [1-11], the “Evaluation (total diseased area in each pot)” value [1] was “A”, the “Evaluation (total diseased area of the first leaves in each pot)” value (Erysiphe graminis) was “A” and the “Evaluation (diseased areas of the upper two of the inoculated leaves)” value (Venturia inaequalis) was “A”. The “Evaluation (total diseased area in each pot)” value (Botrytis cinerea) was “B (Diseased area of less than 25%)”.
In the case of `COC(=O)NCc1cccc(-c2ccc(C)cc2)c1` [1-12], the “Evaluation (total diseased area in each pot)” value [1] is reported as “B (Diseased area of less than 25%)”, the “Evaluation (total diseased area of the first leaves in each pot)” value (Erysiphe graminis) is reported as “A” and the “Evaluation (diseased areas of the upper two of the inoculated leaves)” value (Venturia inaequalis) is reported as “A”. The “Evaluation (total diseased area in each pot)” value (Botrytis cinerea) was “A”.
With `COC(=O)NCc1cccc(-c2ccc(C(F)(F)F)cc2)c1` [1-35] the “Evaluation (total diseased area of the first leaves in each pot)” value (Erysiphe graminis) was “A”, the “Evaluation (diseased areas of the upper two of the inoculated leaves)” value (Venturia inaequalis) was “A” and the “Evaluation (total diseased area in each pot)” value (Botrytis cinerea) was “B (Diseased area of less than 25%)”.
In the case of `COC(=O)NCc1cccc(-c2ccc(OC)cc2)c1` [1-42], the “Evaluation (total diseased area of the first leaves in each pot)” value (Erysiphe graminis) is reported as “B (Diseased area of less than 25%)”, the “Evaluation (diseased areas of the upper two of the inoculated leaves)” value (Venturia inaequalis) is reported as “A” and the “Evaluation (total diseased area in each pot)” value (Botrytis cinerea) is reported as “B (Diseased area of less than 25%)”.
With `CC(C)OC(=O)NCc1cccc(-c2ccccc2)c1` [1-150, Isopropyl N-(3-phenylbenzyl)carbamate] the “Evaluation (total diseased area of the first leaves in each pot)” value (Erysiphe graminis) was “B (Diseased area of less than 25%)” and the melting point was 61 to 64 °C.
In the case of `COC(=O)NCc1cccc(-c2ccccc2)c1C` [2-1, Methyl N-(2-methyl-3-phenylbenzyl)carbamate], the “Evaluation (total diseased area of the first leaves in each pot)” value (Erysiphe graminis) is reported as “A” and the melting point is reported as 91 to 94 °C.
With `CCc1cccc(-c2ccc(F)c(CNC(=O)OC)c2)c1` [2-111] the “Evaluation (total diseased area in each pot)” value [1] was “A”, the “Evaluation (total diseased area of the first leaves in each pot)” value (Erysiphe graminis) was “B (Diseased area of less than 25%)” and the “Evaluation (diseased areas of the upper two of the inoculated leaves)” value (Venturia inaequalis) was “A”. For the same compound, the “Evaluation (total diseased area in each pot)” value (Botrytis cinerea) was “B (Diseased area of less than 25%)”.
In the case of `COC(=O)NCc1cc(-c2cccc(Cl)c2)ccc1OC` [2-331], the “Evaluation (total diseased area in each pot)” value [1] is reported as “A”, the “Evaluation (total diseased area of the first leaves in each pot)” value (Erysiphe graminis) is reported as “B (Diseased area of less than 25%)” and the “Evaluation (diseased area of the upper two inoculated leaves)” value (Venturia inaequalis) is reported as “A”. For the same compound, the “Evaluation (total diseased area in each pot)” value (Botrytis cinerea) was “A”.
In the case of `COC(=O)NCc1cc(-c2ccc(Cl)cc2)ccc1OC` [2-332], the “Evaluation (total diseased area of the first leaves in each pot)” value (Erysiphe graminis) is reported as “B (Diseased area of less than 25%)”, the “Evaluation (diseased area of the upper two inoculated leaves)” value (Venturia inaequalis) is reported as “A” and the “Evaluation (total diseased area in each pot)” value (Botrytis cinerea) is reported as “B (Diseased area of less than 25%)”.
With `COC(=O)NCc1cc(-c2ccc(C)cc2)ccc1OC` [2-334] the “Evaluation (total diseased area in each pot)” value [1] was “B (Diseased area of less than 25%)”, the “Evaluation (total diseased area of the first leaves in each pot)” value (Erysiphe graminis) was “B (Diseased area of less than 25%)” and the “Evaluation (diseased area of the upper two inoculated leaves)” value (Venturia inaequalis) was “A”. For the same compound, the “Evaluation (total diseased area in each pot)” value (Botrytis cinerea) was “A”.
With `COC(=O)NCc1cc(-c2cccc(C(F)(F)F)c2)ccc1OC` [2-343] the “Evaluation (total diseased area in each pot)” value [1] was “A”, the “Evaluation (total diseased area of the first leaves in each pot)” value (Erysiphe graminis) was “B (Diseased area of less than 25%)” and the “Evaluation (diseased area of the upper two inoculated leaves)” value (Venturia inaequalis) was “A”. The “Evaluation (total diseased area in each pot)” value (Botrytis cinerea) was “B (Diseased area of less than 25%)”.
In the case of `COC(=O)NCc1cc(-c2ccc(C)c(C)c2)ccc1OC` [2-346], the “Evaluation (total diseased area in each pot)” value [1] is reported as “B (Diseased area of less than 25%)”, the “Evaluation (total diseased area of the first leaves in each pot)” value (Erysiphe graminis) is reported as “A” and the “Evaluation (diseased area of the upper two inoculated leaves)” value (Venturia inaequalis) is reported as “A”. For the same compound, the “Evaluation (total diseased area in each pot)” value (Botrytis cinerea) was “B (Diseased area of less than 25%)”.
For `COC(=O)NCc1cc(-c2cccc(O)c2)ccc1Cl` [2-448], the “Evaluation (total diseased area of the first leaves in each pot)” value (Erysiphe graminis) was “A”, the “Evaluation (diseased area of the upper two inoculated leaves)” value (Venturia inaequalis) was “A” and the “Evaluation (total diseased area in each pot)” value (Botrytis cinerea) was “A”.
For `COC(=O)NCc1cc(-c2cccc(C(C)=O)c2)ccc1Cl` [2-450], the “Evaluation (total diseased area in each pot)” value [1] was “A”, the “Evaluation (total diseased area of the first leaves in each pot)” value (Erysiphe graminis) was “A” and the “Evaluation (diseased area of the upper two inoculated leaves)” value (Venturia inaequalis) was “A”. For the same compound, the “Evaluation (total diseased area in each pot)” value (Botrytis cinerea) was “A”.
For `COC(=O)NCc1cc(-c2ccc(Br)cc2)ccc1Cl` [2-453], the “Evaluation (total diseased area of the first leaves in each pot)” value (Erysiphe graminis) was “A”, the “Evaluation (diseased area of the upper two inoculated leaves)” value (Venturia inaequalis) was “A” and the “Evaluation (total diseased area in each pot)” value (Botrytis cinerea) was “A”.
In the case of `COC(=O)NCc1cc(-c2ccc(OC)c(OC)c2)ccc1Cl` [2-455], the “Evaluation (total diseased area of the first leaves in each pot)” value (Erysiphe graminis) is reported as “B (Diseased area of less than 25%)”, the “Evaluation (diseased area of the upper two inoculated leaves)” value (Venturia inaequalis) is reported as “A” and the “Evaluation (total diseased area in each pot)” value (Botrytis cinerea) is reported as “B (Diseased area of less than 25%)”.
With `COC(=O)NCc1cc(-c2ccc(C)cc2)ccc1I` [2-551] the “Evaluation (total diseased area of the first leaves in each pot)” value (Erysiphe graminis) was “B (Diseased area of less than 25%)”, the “Evaluation (diseased area of the upper two inoculated leaves)” value (Venturia inaequalis) was “A” and the “Evaluation (total diseased area in each pot)” value (Botrytis cinerea) was “B (Diseased area of less than 25%)”.
In the case of `COC(=O)NC(C)c1cccc(-c2ccc(OC)cc2)c1` (centres unmarked) [3-15, Methyl N-{1-[3-(4-methoxyphenyl)phenyl]ethyl}carbamate], the “Evaluation (total diseased area in each pot)” value [1] is reported as “A” and the melting point is reported as 117 to 119 °C.

— patent US6620961B1, “Biarylalkylenecarbamic acid derivatives and bacteriocides for agricultural and horticultural use” (Kumiai Chemical Industry Co., Ltd., priority 1997, dated 2003)
